Patent publication US5185149A, “Methods for thrombolytic therapy” (Merck & Co., Inc., priority 1990, dated 1993)

System: blood clots (whole blood or plasma clot labelled with 125I-fibrinogen)
Assay: in vitro clot lysis assay (release of 125I-fibrin-derived fragments, TPA-initiated lysis)
Format: biochemical
Conditions: buffer pH 7.5
Protocol: In the assay, whole blood or plasma is charged with ^125 I-fibrinogen Thrombin is added to initiate clot formation and subsequently incubated for 2 hours to complete the cross-linking by endogenous Factor XIII. Factor XIIIa inhibitor is added prior to clot initiation or at various times during the 2-hour incubation. At the end of this period, the labelled clot is washed and lysis is initiated by exogenous tissue plasminogen activator (TPA). Exogenous plasminogen is employed in some experiments Endogenous plasminogen is used for others. Clot dissolution as a function of time is monitored by the release of solubilized ^125 I-fibrin-derived fragments.
In FIGS. 1 and 2, the open symbols indicate absence of cerulenin and the closed symbols indicate the presence of 200μM cerulenin at the time of clot formation. Clot lysis is conducted in buffer, pH 7.5; 5 ng/mL TPA represents approximate physiologic concentration. 50 to […] represents pharmacologic concentration range. […] FIG. 2 studies employed glu-plasminogen levels at approximately 10 percent physiologic level ([…]).

C/C=C/C/C=C/CCC(=O)[C@H]1O[C@H]1C(N)=O [Cerulenin, 3-(1-oxo-4,7-nonadienyl)-oxiranecarboxamide]
rates and extents of clot lysis (200μM inhibitor at clot formation, no exogenous plasminogen, TPA at physiological and pharmacological levels, FIG. 1): enhanced rates and extents of lysis
rate of TPA catalyzed clot lysis (200μM inhibitor, 12μg/mL exogenous glu-plasminogen, TPA, FIG. 2): lysis rates were further enhanced
